Assay [1] concerns mice with carotid artery thrombus. The experiment in a line: 18-Score Modified Neurological Severity Score, mice. In kind it is in vivo, C57BL/6 mice. Here is the method: Neurological scoring was conducted to each group of […] after reperfused for 3 hours and 24 hours based upon scoring standards (18 scores), as shown in table 2:
Another scoring method is introduced hereafter. Modified neurological severity scores, mNSS, the score is within the range of 0-18. The scoring method is referring to 1.4 of Example 1.
18-Score Modified Neurological Severity Score (normal mice=0; the higher the score is, the more severe the nerve injury is), and a 15-score standard (normal mice=15, dead mice=0) are applied.

In assay [2] the test system is brain tissue (blood brain barrier leakage). Description: Evens Blue leakage in brain tissue. Conditions: 24 h after administration; method: microgram Evens Blue per gram brain tissue; tPA 10 mg/kg alone; T541 20 mg/kg + tPA 10 mg/kg. It is filed as in vivo, C57BL/6 mice. As for the experimental part: Evens Blue leakage: after reperfused for 21 hours, mice were slowly injected an Evens Blue dye (2%, 4 ml/kg) dissolving in normal saline via femoral vein. 3 hours later, mice were perfused 15-20 ml of normal saline till auricula dextra flows colourless liquid, then the brain was immediately separated and immobilized in a 3% paraformaldehyde for 3 hours, then taken out, the brain was cut into 5 slices and shoot; left and right brain was separated and respectively weighed. Left and right brain was respectively added to an EP tube containing 1 ml of 50% trichloroacetic acid, homogenated and centrifuged to obtain the supernatant. An Evens Blue standard was prepared and the content of Evens Blue was detected by a multimode reader (exciting light: 620 nm, emitting light: 680 nm). The content of Evens Blue was denoted by the microgram of Evens Blue in per gram of brain tissue.

In assay [3] the test system is Claudin-5. The experiment in a line: Western blotting of Claudin-5, endothelial cells after hypoxia/reoxygenation. In kind it is cell-based. The note with it: rat brain endothelial cells, hypoxia 4.5 h/reoxygenation 3 h; tPA 20 mcg/ml alone (model group); T541 400 mcg/ml + tPA 20 mcg/ml. The text has this:
Establishment of rat brain endothelial cell H/R model: rat brain endothelial cells were purchased from ATCC, and then subcultured to 5-6 generations in normal conditions for further experiment. […]
(In general: A western blot detects proteins with antibodies after separation by electrophoresis.)

Assay [4] has as its system mitochondrial complex I. The experiment in a line: Mitochondrial complex I activity in brain tissue. The note with it: brain tissue 24 hours after administration; tPA 10 mg/kg alone or + T541 20 mg/kg or ingredients at Table 7 doses. In kind it is in vivo, C57BL/6 mice. The text has this: To compare the therapeutical effect on reperfusion injury caused by tPA thrombolysis between the traditional Chinese medicinal composition of the present invention and each ingredient (total saponins of Astragalus, the experiment was divided into the following group (tPA is combined with T541, individual ingredient thereof and compatibility of any two ingredients) specifically as follows: tPA+total saponins of Astragalus (tPA+HQ), tPA+ salvianolic acids (tPA+DS), tPA+Panax notoginseng saponins (tPA+SQ), tPA+ total saponins of Astragalus+salvianolic acids (tPA+HQ+DS), tPA+ total saponins of Astragalus+Panax notoginseng saponins (tPA+HQ+SQ), tPA+ salvianolic acids+Panax notoginseng saponins (tPA+DS+SQ) and tPA+T541. Normal saline served as an isovolumetric control. The usage number in each group is 6.
ELISA adsorption kit was used to measure the change on the content of MDA, 8-hydroxyl-2′-deoxyguanosine (8-OHdG), adenosine triphosphate (ATP), adenosine diphosphate (ADP) and adenosine monophosphate (AMP) in the penumbra field of brain tissue cortex of the mode, and the change on the activity of mitochondrial complexes I, II, IV and V. 6 samples were used to repeat the independent experiment for at least three times for each group of data.

Experimental findings from patent US20210038668A1, “TRADITIONAL CHINESE MEDICINE COMPOSITION FOR PREVENTING AND/OR TREATING ISCHEMIC REPERFUSION INJURY” (TASLY PHARMACEUTICAL GROUP CO., LTD., priority 2018, published 2021) are described below.

As to “tPA: tissue-type plasminogen activator (tPA) for thrombolysis”, in assay [1] (24 hours after administration, normal = 0, tPA 10 mg/kg alone, T541 20 mg/kg, T141 12 mg/kg, T582 15 mg/kg each + tPA 10 mg/kg), the “18-Score Modified Neurological Severity Score” value amounted to 7.45 ± 0.73. Also, the “neurological scoring 24 hours after administration (in words)” value in assay [1] (tPA alone, low/medium/high-dose T541 + tPA) is on record as “may not improve the neurological scoring”. In addition, the “Evens Blue leakage” value in assay [2] turned out to be 17.55 ± 1.23. In addition, the Claudin-5/β-actin in assay [3] was 0.40 ± 0.06. In addition, the “Complex I activity” value in assay [4] is on record as 1.75 ± 0.14.
